According to ChEMBL document CHEMBL4814024, “Microwave assisted regioselective synthesis of quinoline appended triazoles as potent anti-tubercular and antifungal agents via copper (I) catalyzed cycloaddition” (Bioorg Med Chem Lett, 2021):
Values after ≈ are worked out from the molar mass of the structure shown.

Experiments:
[1] = system: Mycobacterium tuberculosis; test: Antimycobacterial activity against Mycobacterium tuberculosis; type: functional
[2] = system: Mycobacterium tuberculosis; test: Antimycobacterial activity against Mycobacterium tuberculosis H37Rv assessed as reduction in bacterial growth incubated for 5 days by MTT assay; type: functional; conditions: 120 h, time 5 day
[3] = system: Aspergillus fumigatus; test: Antifungal activity against Aspergillus fumigatus; type: functional
[4] = system: Aspergillus niger; test: Antifungal activity against Aspergillus niger; type: functional
[5] = system: Candida albicans; test: Antifungal activity against Candida albicans; type: functional
[6] = system: Aspergillus flavus; test: Antifungal activity against Aspergillus flavus; type: functional
[7] = system: Mycobacterium tuberculosis; test: Antimycobacterial activity against Mycobacterium tuberculosis H37Rv ATCC 27294 assessed as reduction in bacterial growth by microplate alamar blue assay; type: functional
[8] = system: HEK293; test: Cytotoxicity against HEK293 cells by MTT assay; type: cell-based; conditions: Homo sapiens
[9] = Selectivity index, ratio of IC50 for cytotoxicity against human HEK293 cells to MIC for antimycobacterial activity against Mycobacterium tuberculosis H37Rv ATCC 27294; type: toxicity, cell-based; conditions: read-out: Selectivity Index

Row | Structure (SMILES) | MIC [1] [µg/mL] | MIC [2] [µg/mL] | MIC [3] [µg/mL] | MIC [4] [µg/mL] | MIC [5] [µg/mL] | MIC [6] [µg/mL] | MIC [7] [µg/mL] | IC50 [8] [µg/mL] | selectivity ratio [9]
1 | O=C(N/N=C/c1cn(-c2ccc(Cl)cc2)nn1)c1ccncc1 | 0.62 (≈ 1.9 µM) |  |  |  |  |  |  |  | 
2 | CCCCCCCCc1cn(CC(=O)OCC)nn1 |  | 0.5 (≈ 1.87 µM) |  |  |  |  |  |  | 
3 | O=c1n(Cc2cn(Cc3cc4cc(Cl)ccc4nc3Cl)nn2)cnn1-c1ccccc1 |  |  | 3.12 (≈ 6.9 µM) | 0.2 (≈ 0.442 µM) | 0.2 (≈ 0.442 µM) | 0.2 (≈ 0.442 µM) | 12.5 (≈ 27.6 µM) | 459 (≈ 1010 µM) | 36.7
4 | O=c1n(Cc2cn(Cc3cc4ccc(Cl)cc4nc3Cl)nn2)cnn1-c1ccccc1 |  |  | 3.12 (≈ 6.9 µM) | 0.2 (≈ 0.442 µM) | 0.2 (≈ 0.442 µM) | 0.2 (≈ 0.442 µM) | 25 (≈ 55.3 µM) | 869 (≈ 1920 µM) | 34.8
5 | COc1ccc2cc(Cn3cc(Cn4cnn(-c5ccccc5)c4=O)nn3)c(Cl)nc2c1 |  |  | 3.12 (≈ 6.97 µM) | 0.2 (≈ 0.447 µM) | 0.2 (≈ 0.447 µM) | 0.2 (≈ 0.447 µM) | 1.6 (≈ 3.57 µM) | 1010 (≈ 2250 µM) | 630
6 | C[C@@H](N1CCN(c2ccc(-n3cnnn3)cc2)C1=O)[C@](O)(Cn1cncn1)c1ccc(F)cc1F |  |  | 1 (≈ 2.08 µM) |  |  |  |  |  | 
7 | COc1ccc(-n2ncn(Cc3cn(Cc4cc5cccc(C)c5nc4Cl)nn3)c2=O)cc1 |  |  | 3.12 (≈ 6.75 µM) | 0.2 (≈ 0.433 µM) | 0.2 (≈ 0.433 µM) | 0.2 (≈ 0.433 µM) | 1.6 (≈ 3.46 µM) | 586 (≈ 1270 µM) | 366
8 | COc1ccc(-n2ncn(Cc3cn(Cc4cc5cc(Cl)ccc5nc4Cl)nn3)c2=O)cc1 |  |  | 3.12 (≈ 6.47 µM) | 0.2 (≈ 0.415 µM) | 0.2 (≈ 0.415 µM) | 0.2 (≈ 0.415 µM) | 3.12 (≈ 6.47 µM) | 1060 (≈ 2200 µM) | 340
9 | Cc1cccc2cc(Cn3cc(Cn4cnn(-c5ccccc5)c4=O)nn3)c(Cl)nc12 |  |  | 3.12 (≈ 7.22 µM) | 0.2 (≈ 0.463 µM) | 0.2 (≈ 0.463 µM) | 0.2 (≈ 0.463 µM) | 1.6 (≈ 3.7 µM) | 729 (≈ 1690 µM) | 234
10 | O=c1n(Cc2cn(Cc3cc4ccccc4nc3Cl)nn2)cnn1-c1ccccc1 |  |  | 3.12 (≈ 7.47 µM) | 0.2 (≈ 0.479 µM) | 0.2 (≈ 0.479 µM) | 0.2 (≈ 0.479 µM) | 25 (≈ 59.8 µM) | 655 (≈ 1570 µM) | 26.2
11 | COc1ccc(-n2ncn(Cc3cn(Cc4cc5ccc(Cl)cc5nc4Cl)nn3)c2=O)cc1 |  |  | 3.12 (≈ 6.47 µM) | 0.2 (≈ 0.415 µM) | 0.2 (≈ 0.415 µM) | 0.2 (≈ 0.415 µM) | 3.12 (≈ 6.47 µM) | 1460 (≈ 3040 µM) | 470
12 | COc1ccc(-n2ncn(Cc3cn(Cc4cc5cc(C)ccc5nc4Cl)nn3)c2=O)cc1 |  |  | 3.12 (≈ 6.75 µM) | 0.2 (≈ 0.433 µM) | 0.2 (≈ 0.433 µM) | 0.2 (≈ 0.433 µM) | 1.6 (≈ 3.46 µM) | 615 (≈ 1330 µM) | 384
13 | COc1ccc(-n2ncn(Cc3cn(Cc4cc5ccccc5nc4Cl)nn3)c2=O)cc1 |  |  | 3.12 (≈ 6.97 µM) | 0.2 (≈ 0.447 µM) | 0.2 (≈ 0.447 µM) | 0.2 (≈ 0.447 µM) | 12.5 (≈ 27.9 µM) | 958 (≈ 2140 µM) | 76.7
14 | Cc1ccc2nc(Cl)c(Cn3cc(Cn4cnn(-c5ccccc5)c4=O)nn3)cc2c1 |  |  | 3.12 (≈ 7.22 µM) | 0.2 (≈ 0.463 µM) | 0.2 (≈ 0.463 µM) | 0.2 (≈ 0.463 µM) | 3.12 (≈ 7.22 µM) | 478 (≈ 1110 µM) | 153
15 | COc1ccc(-n2ncn(Cc3cn(Cc4cc5cc(Br)ccc5nc4Cl)nn3)c2=O)cc1 |  |  | 3.12 (≈ 5.92 µM) | 0.2 (≈ 0.38 µM) | 0.2 (≈ 0.38 µM) | 0.2 (≈ 0.38 µM) | 6.25 (≈ 11.9 µM) | 333 (≈ 632 µM) | 53.2
16 | O=c1n(Cc2cn(Cc3cc4cc(Br)ccc4nc3Cl)nn2)cnn1-c1ccccc1 |  |  | 3.12 (≈ 6.28 µM) | 0.2 (≈ 0.403 µM) | 0.2 (≈ 0.403 µM) | 0.2 (≈ 0.403 µM) | 25 (≈ 50.3 µM) | 1650 (≈ 3330 µM) | 66.1
17 | O=C(O)c1cn(C2CC2)c2cc(N3CCNCC3)c(F)cc2c1=O [CIPROFLOXACIN] |  |  |  |  |  |  | 3.12 (≈ 9.42 µM) |  | 
18 | OC(Cn1cncn1)(Cn1cncn1)c1ccc(F)cc1F [FLUCONAZOLE] |  |  |  | 25 (≈ 81.6 µM) | 25 (≈ 81.6 µM) | 25 (≈ 81.6 µM) |  |  | 
19 | NNC(=O)c1ccncc1 [ISONIAZID] |  |  |  |  |  |  | 1.6 (≈ 11.7 µM) |  | 
20 | NC(=O)c1cnccn1 [PYRAZINAMIDE] |  |  |  |  |  |  | 6.25 (≈ 50.8 µM) |  | 
